Laboratory results published in US20250144067A1, “PERSONALIZED STARVATION THERAPY FOR CANCER” (Faeth Therapeutics, Inc., priority 2021, published 2025).
Where a name gives a salt, the structure may show the parent alone.

Legend:
[1] = system: NCI-H292 lung cancer cells; assay: FDA drug screening, complete media vs cholesterol-free media with simvastatin (TABLE 2); type: cell-based, human; details: for Cholesterol-free media + simvastatin (0.04 μM) / Complete Media: NCI-H292 cells
[2] = system: NCI-H292 lung cancer cells; assay: FDA drug screening, complete media vs cholesterol-free media without statin (TABLE 1); type: cell-based, human
[3] = cholesterol-free media with simvastatin 0.04 μM, FDA drug library screen (TABLE 2)
[4] = complete media, FDA drug library screen (TABLE 2)
[5] = Complete minus Cholesterol-free, […]
[6] = NCI-H292 cells in cholesterol-free media without statin
[7] = NCI-H292 cells in complete media
[8] = FDA drug library screen, cholesterol-free media with simvastatin 0.04 μM
[9] = FDA drug library screen, complete media
[10] = complete media minus cholesterol-free media + simvastatin, […]
[11] = NCI-H292 cells, FDA drug library screen, cholesterol-free media without statin
[12] = NCI-H292 cells, FDA drug library screen, complete media
[13] = complete media minus cholesterol-free media + simvastatin (0.04 μM), >0 enhanced anti-cancer activity, about 0 neutral, <0 antagonist
[14] = Complete minus Cholesterol-free, >0 enhanced anti-cancer activity, about 0 neutral, <0 antagonist
[15] = NCI-H292 cells, cholesterol-free media without statin
[16] = FDA library drug in cholesterol-free media with simvastatin 0.04 μM
[17] = FDA library drug in complete media
[18] = complete media vs cholesterol-free media + simvastatin (0.04 μM), >0 enhanced anti-cancer activity, about 0 neutral, <0 antagonist
[19] = NCI-H292 cells, cholesterol-free media without statin, FDA drug library screen
[20] = NCI-H292 cells, complete media, FDA drug library screen
[21] = complete media minus cholesterol-free media + simvastatin, >0 enhanced anti-cancer activity, about 0 neutral, <0 antagonist
[22] = complete vs cholesterol-free media, greater than 0 enhanced anti-cancer activity, about 0 neutral, below 0 antagonists
[23] = complete vs cholesterol-free media, >0 enhanced anti-cancer activity, about 0 neutral, <0 antagonist
[24] = Complete minus Cholesterol-free, greater than 0 enhanced anti-cancer activity, about 0 neutral, below 0 antagonists

Row | Compound | Cholesterol-free media + simvastatin (0.04 μM) [1, 8] | Complete Media [1, 9] | Cholesterol-free [2, 15] | Complete ([2]; NCI-H292 cells, complete media) | Difference [1, 18] | Cholesterol-free [2, 19] | Complete [2, 20] | Difference [1, 21] | Difference [2, 23] | other results
1 | Alarelin (Acetate) | – | – | – | – | – | – | – | – | – | Cholesterol-free media + simvastatin (0.04 μM) [1, 3]: 0.8515; Complete Media [1, 4]: 0.85; Difference ([1]; complete media minus cholesterol-free media + simvastatin (0.04 μM), […]): 0.00; Difference [2, 5]: −0.71; Cholesterol-free [2, 6]: 2.133; Complete [2, 7]: 1.426
2 | O=S(=O)([O-])CCSSCCS(=O)(=O)[O-].[Na+].[Na+] [Dimesna] | 0.7165 | 1.057 | – | – | – | – | – | – | – | Difference [1, 10]: 0.34; Difference [2, 5]: −0.18; Cholesterol-free [2, 11]: 1.073; Complete [2, 12]: 0.897
3 | COc1cc(CNC(=O)CCCC/C=C/C(C)C)ccc1O [Capsaicin] | – | – | 1.197 | 0.9142 | – | – | – | – | – | Cholesterol-free media + simvastatin (0.04 μM) [1, 3]: 1.403; Complete Media [1, 4]: 1.38; Difference [1, 13]: −0.02; Difference [2, 14]: −0.28
4 | CC(C)(CO)[C@@H](O)C(=O)NCCC(=O)[O-].CC(C)(CO)[C@@H](O)C(=O)NCCC(=O)[O-].[Ca+2] [D-Pantothenic acid (hemicalcium salt)] | – | – | – | – | −0.37 | 0.8788 | 0.8434 | – | – | Cholesterol-free media + simvastatin (0.04 μM) [1, 16]: 1.159; Complete Media [1, 17]: 0.786; Difference [2, 14]: −0.04
5 | Rilmenidine (hemifumarate) | – | – | 1.211 | 0.771 | – | – | – | – | – | Cholesterol-free media + simvastatin (0.04 μM) [1, 16]: 1.87; Complete Media [1, 17]: 1.431; Difference ([1]; complete media vs cholesterol-free media + simvastatin (0.04 μM), […]): −0.44; Difference ([2]; complete vs cholesterol-free media, […]): −0.44
6 | CCCN1CCCC[C@H]1C(=O)Nc1c(C)cccc1C.CS(=O)(=O)O [Ropivacaine (mesylate)] | 0.9302 | – | 1.155 | 0.7954 | – | – | – | 0.22 | – | Difference [2, 22]: −0.36
7 | CN1[C@@H](CC(=O)c2ccccc2)CCC[C@H]1C[C@H](O)c1ccccc1 [Lobeline (hydrochloride)] | – | – | – | – | −0.29 | 0.6538 | 1.202 | – | 0.55 | Cholesterol-free media + simvastatin (0.04 μM) [1, 16]: 1.408; Complete Media [1, 17]: 1.116
8 | CO[C@H]1/C=C/O[C@@]2(C)Oc3c(C)c(O)c4c(O)c(c(/C=N/N5CCN(C6CCCC6)CC5)c(O)c4c3C2=O)NC(=O)/C(C)=C\C=C\[C@H](C)[C@H](O)[C@@H](C)[C@@H](O)[C@@H](C)[C@H](OC(C)=O)[C@@H]1C [Rifapentine] | 1.582 | 1.938 | – | – | – | 1.056 | 0.9967 | 0.36 | – | Difference [2, 14]: −0.06
9 | CC1(C)S[C@@H]2[C@H](NC(=O)[C@H](N)c3ccc(O)cc3)C(=O)N2[C@H]1C(=O)O [Amoxicillin (trihydrate)] | 0.7666 | 1.02 | – | – | – | 0.8623 | 0.9771 | 0.25 | 0.11 | –
10 | CCOC(=O)C1=C(COCCN)NC(C)=C(C(=O)OC)C1c1ccccc1Cl (centres unmarked) [Amlodipine] | 1.424 | 1.705 | – | – | – | 0.797 | 1.434 | 0.28 | 0.64 | –
11 | CCOC(=O)c1c(CSc2ccccc2)n(C)c2cc(Br)c(O)c(CN(C)C)c12 [Umifenovir (hydrochloride)] | 0.9009 | 1.225 | 1.088 | 0.7625 | – | – | – | 0.32 | – | Difference [2, 22]: −0.33
12 | O=C(CO)[C@@H](O)[C@H](O)[C@H](O)CO [Fructose] | – | – | – | – | −0.87 | 1.048 | 1.329 | – | 0.28 | Cholesterol-free media + simvastatin (0.04 μM) [1, 16]: 2.032; Complete Media [1, 17]: 1.165
13 | Nc1nc(N)c2nc(-c3ccccc3)c(N)nc2n1 [Triamterene] | – | – | – | – | −0.28 | 0.6087 | 1.304 | – | 0.69 | Cholesterol-free media + simvastatin (0.04 μM) [1, 16]: 1.582; Complete Media [1, 17]: 1.301
14 | CN1C(=O)/C(=C2/C(=O)Nc3ccccc32)c2ccccc21 [Meisoindigo] | 0.9145 | 1.461 | – | – | – | 0.8169 | 1.238 | 0.55 | 0.42 | –
15 | Cc1cccc(N2CC(CO)OC2=O)c1 (centres unmarked) [Toloxatone] | – | – | – | – | – | – | – | – | – | Cholesterol-free media + simvastatin (0.04 μM) [1, 3]: 1.023; Complete Media [1, 4]: 1.032; Difference [1, 13]: 0.01; Difference [2, 24]: −0.48; Cholesterol-free [2, 6]: 1.574; Complete [2, 7]: 1.099
16 | COc1ccc(-n2nc(C(N)=O)c3c2C(=O)N(c2ccc(N4CCCCC4=O)cc2)CC3)cc1 [Apixaban] | 0.9978 | 1.135 | – | – | – | 0.9998 | 0.9349 | 0.14 | – | Difference [2, 14]: −0.06
17 | COc1ccc2c3c1O[C@H]1C[C@@H](O)C=C[C@@]31CCN(C)C2 [Galanthamine (hydrobromide)] | – | – | 1.284 | 1.033 | – | – | – | – | – | Cholesterol-free media + simvastatin (0.04 μM) ([1]; cholesterol-free media with simvastatin 0.04 μM, […]): 1.411; Complete Media ([1]; complete media, […]): 1.432; Difference [1, 10]: 0.02; Difference [2, 5]: −0.25
18 | C[C@H](Cn1cnc2c(N)ncnc21)OCP(=O)(O)O.O [Tenofovir (hydrate)] | 1.824 | 2.099 | – | – | – | 0.8777 | 1.281 | 0.27 | 0.40 | –
19 | CN1CCC(=C2c3ccccc3CCc3sccc32)CC1 [Pizotifen] | 0.849 | 1.216 | 1.127 | 0.7811 | – | – | – | 0.37 | – | Difference [2, 22]: −0.35
20 | Cc1cc(C2CCCCC2)n(O)c(=O)c1 [Ciclopirox] | 0.2219 | 0.6804 | – | – | – | – | – | 0.46 | – | Difference ([2]; Complete minus Cholesterol-free, greater than 0 enhanced anti-cancer activity, about 0 neutral, below 0 antagonist): −0.10; Cholesterol-free [2, 11]: 0.2725; Complete [2, 12]: 0.1741
21 | CCN(CC)C(=O)c1ccc(O)c(OC)c1 [Etamivan] | – | – | – | – | −0.31 | – | – | – | – | Cholesterol-free media + simvastatin (0.04 μM) [1, 16]: 1.227; Complete Media [1, 17]: 0.9141; Difference [2, 24]: −0.50; Cholesterol-free [2, 6]: 1.483; Complete [2, 7]: 0.9848
22 | CN(CC(=O)O)C(=N)N [Creatine] | 1.925 | 1.831 | – | – | −0.09 | – | – | – | – | Difference [2, 24]: −0.96; Cholesterol-free [2, 6]: 2.303; Complete [2, 7]: 1.348
23 | Pixantrone (dimaleate) | 1.334 | 1.212 | 1.33 | 0.8848 | −0.12 | – | – | – | – | Difference [2, 22]: −0.45
